Assay results: article PMC8961527, “Protein Binding of Benzofuran Derivatives: A CD Spectroscopic and In Silico Comparative Study of the Effects of 4-Nitrophenyl Functionalized Benzofurans and Benzodifurans on BSA Protein Structure” (Biomolecules, 2022)

Experiments:
[1] = biological target: T1, bovine serum albumin (BSA) (Bos taurus, UniProt P02769); assay: intrinsic tryptophan fluorescence quenching titration (apparent kD); supported by CD spectra and CD melting (ΔTm −[…] °C); assay type: binding
T1 construct: gene ALB
T1 sequence (P02769 25-607): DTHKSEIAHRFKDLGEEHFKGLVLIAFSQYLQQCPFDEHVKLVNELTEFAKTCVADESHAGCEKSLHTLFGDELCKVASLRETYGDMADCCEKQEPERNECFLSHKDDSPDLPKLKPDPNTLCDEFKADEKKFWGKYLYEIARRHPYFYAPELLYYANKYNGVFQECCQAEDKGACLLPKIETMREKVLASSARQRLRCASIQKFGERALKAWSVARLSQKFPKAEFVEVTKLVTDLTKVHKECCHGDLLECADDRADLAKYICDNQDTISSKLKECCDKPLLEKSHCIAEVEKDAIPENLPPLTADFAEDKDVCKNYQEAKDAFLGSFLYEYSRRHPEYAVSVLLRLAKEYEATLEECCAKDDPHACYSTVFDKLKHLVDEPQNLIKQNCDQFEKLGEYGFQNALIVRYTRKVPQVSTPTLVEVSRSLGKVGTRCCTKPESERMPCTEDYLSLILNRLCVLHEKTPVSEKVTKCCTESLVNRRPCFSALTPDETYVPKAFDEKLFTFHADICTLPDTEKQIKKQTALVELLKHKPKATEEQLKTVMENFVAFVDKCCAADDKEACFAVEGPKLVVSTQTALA

[2] = biological target: T1, bovine serum albumin (BSA); assay: intrinsic tryptophan fluorescence quenching titration (apparent kD); supported by CD spectra and CD melting (ΔTm +[…] °C); assay type: binding

Kd [1] [µM]	Kd [2] [µM]	SMILES
0.142 ± 0.0646		CCCCOC(=O)c1c(N)oc2c(-c3ccc([N+](=O)[O-])cc3)c3c(C(=O)OCCCC)c(N)oc3cc12 [BDF1]
	0.0284 ± 0.0101	CCCCOC(=O)c1c(N)oc2ccc(O)c(-c3ccc([N+](=O)[O-])cc3)c12 [BF1]
